Source: patent US11377456B2, “Crystalline form of Remdesivir” (Apotex Inc., priority 2020, dated 2022)

Legend:
[1] = Comparative intrinsic dissolution testing (Wood's apparatus); type: physicochemical; settings: 900 mL distilled water, 37° C., 50 rpm, sample compressed at 1.5 metric tons for 1 minute
Experimental: Intrinsic dissolution rate (IDR) measurements were performed using a Wood's apparatus. Samples were prepared by compressing an amount (267 mg Form II; 258 mg APO-I) of sample at 1.5 metric tons for 1 minute. A dissolution medium consisting of 900 mL distilled water maintained at 37° C., and rotation speed of 50 rpm, was used for each experiment.

[2] = PXRD study of crystalline form stability in a 27° C./60% RH stability chamber; type: physicochemical; settings: capped and uncapped samples, at least 5 weeks
Experimental: Remdesivir Form APO-I can be characterized by a PXRD diffractogram comprising, among other peaks, characteristic peaks, expressed in degrees 2θ (±0.2°), at 4.0°, 17.0° and 20.3°. Preferably, the PXRD diffractogram further comprises at least three peaks, expressed in degrees 2θ (±0.2°), selected from the group consisting of 10.4°, 13.0°, 14.1°, 15.3°, 17.5°, 18.3°, 22.1°, 23.9°, 25.1° and 25.9°. More preferably, the PXRD diffractogram further comprises peaks, expressed in degrees 2θ (±0.2°), at 10.4°, 13.0°, 14.1°, 15.3°, 17.5°, 18.3°, 22.1°, 23.9°, 25.1° and 25.9°.
The PXRD diffractogram was recorded on a Bruker D8 Discover powder X-ray diffractometer (Bruker-AXS, Karlsruhe, Germany). The generator was a Micro-focus X-ray source (Incoatec IμS Cu anode, λ=1.54060 Å) with a voltage of 50 kV and current of 1.00 mA. X-rays were focused with a micro mask 0.1 mm plug-in microslit. One frame was collected using a still scan with a PILATUS3 R 100K-A detector at the distance of 154.72 mm from the sample. Raw data was evaluated using the program EVA (Bruker-AXS, Karlsruhe, Germany).

Row | Structure (SMILES) | Intrinsic Dissolution Rate [1] | Change in crystalline form by PXRD (polymorphic stability) [2]
1 | CCC(CC)COC(=O)[C@H](C)N[P@](=O)(OC[C@H]1O[C@@](C#N)(c2ccc3c(N)ncnn23)[C@H](O)[C@@H]1O)Oc1ccccc1 [Remdesivir Form APO-I] | 0.013 mg min^−1 cm^−2 | no change in the crystalline form occurred
2 | CCC(CC)COC(=O)[C@H](C)N[P@](=O)(OC[C@H]1O[C@@](C#N)(c2ccc3c(N)ncnn23)[C@H](O)[C@@H]1O)Oc1ccccc1 [Remdesivir Form II, reference compound] | 0.0083 mg min^−1 cm^−2 | –
